# Data: article PMC4976923, “Potent Allosteric Dengue Virus NS5 Polymerase Inhibitors: Mechanism of Action and Resistance Profiling” (PLoS Pathogens, 2016)
# Assays:
# [1] = system: clinical isolates of DENV1-4; details: across four serotypes; cited from earlier work
# DENV1 FL NS5 = target: T1, DENV1 FL NS5 (Dengue virus type 1, UniProt P17763); details: read-out: DENV FL NS5 de novo initiation FAPA, IC50, DENV1; cited from earlier work
# T1 construct: 100 nM DENV FL NS5 protein was added; made in house
# DENV4, strain MY01-22713 = experiment: DENV4 infected A549 cells, high content imaging (HCI); format: cell-based; details: 48 hr
# Protocol: (§1) 2 Co mpound testing with DENV dn I FAPA assays. Final dn I assa y reaction mixtures
# (§2) 3 contained 100 nM DENV 5 ´UTR-L-3´UTR IVT RNA, 20 µ M ATP, 20 µM GTP, 20 µM
# (§3) 4 UTP, 5 µM ATTO -CTP, and 100 nM of DENV FL NS5 protein in 15 µl in assa y buffer
# (§4) 5 comprising 50 mM Tris/ HCl, pH 7.5, 10 mM KCl, 1 mM MgCl2, 0.3 mM MnCl2 (DENV2
# (§5) 6 and 4) or 1 mM MnCl 2 (DENV1 and 3), 0.001% Triton- X-100 and 10 µ M cystein e [ 1] . To
# (§6) 7 perform dose-respons e inhibition measurements, compounds from 0- 20 or - 100 µM
# (§7) 8 concentr ations are two -fold seriall y diluted into 384-well black opaqu e plat es (Corning
# (§8) 9 Costar), after which 100 nM DENV FL NS5 protein was added into resp ect ive wells. The
# (§9) 10 plates wer e sealed, b riefl y shak en and centrif uged at 1500 rpm for 30 sec and incubated at RT
# (§10) 11 for 15 min. Thereafter,RNA and ATTO -CTP, ATP, GTP and UTP were added to the wells to
# (§11) 12 start the reactions. The pl ates wer e re-seal ed, shaken and centrifuged as before, followed b y
# 13 incubation RT for 120 min. […]
# (§12) 15 intestinal phosphatase (CIP), re- incubation at RT for 60 min and read on a Tecan Safire II
# 16 microplate reader. […]
# 8 DENV envelope protein ) and DRAQ5 (for nucl ear DNA) . Quantifications of DENV
# 9 envelope protein were determined using the Opera high content imaging s ystem and anal ysis […]
# 17 µM concentrations. At 48 hr of post-incubation, r enilla luciferas e activities were measured […]
# DENV4 FL NS5 [2] = target: T2, DENV4 FL NS5 (Dengue virus type 4, UniProt P09866); experiment: biochemical; details: Enzyme + compound 20 min, then ssRNA and nucleotides, 2 hr; averaged from ≥3 experiments; read-out: DENV FL NS5 de novo initiation FAPA, IC50, DENV4
# T2 construct: 100 nM DENV FL NS5 protein was added; made in house
# Protocol: (§13) DENV1-4 FL NS5 dnI assays were performed as described previously. Briefly, compounds from 0–20 or -100 μM concentrations are two-fold serially diluted into 384-well black opaque plates (Corning Costar), after which 100 nM DENV FL NS5 protein was added and the plates incubated at RT for 20 min. RNA and ATTO-CTP, ATP, GTP and UTP were then added and the plates incubated for another 120 min. […] For order-of-addition experiments, DENV4 FL NS5 was incubated for one hour at RT with RNA, ATP, and GTP or RNA, ATP, GTP and ATTO-CTP, followed by exposure to serially diluted compounds for 20 min at RT. The missing components (ATTO-CTP and UTP or UTP alone) were added and the reactions continued for 120 min after which STOP buffer was added as before. All datapoints were performed in duplicate wells. Each compound was tested at least twice.
# as §1, §2, §3, §4, §5, §6, §7, §8, §9, §10, §11
# (§14) 13 incubation RT for 120 min.
# as §12
# (§15) 16 microplate reader. For o r der-of-addition experiments, DENV4 FL NS5 was incubated for one
# (§16) 17 hour at RT with RNA, ATP, and GTP or RNA, ATP, GTP and ATTO-CTP, followed by
# (§17) 18 exposure to seriall y dilut ed compounds for 20 mi n at RT. The missing components (ATTO-
# (§18) 19 CTP and UTP or UTP alone) were added and the reactions continued for 120 min after which
# (§19) 20 STOP buffer was added as before. All datapoints were performed in duplicate wells. Each
# 21 compound was tested at l east twice. […]
# DENV2 FL NS5 = target: T3, DENV2 FL NS5 (Dengue virus type 2, UniProt P14340); experiment: DENV2 FL NS5 de novo initiation FAPA assay; format: biochemical; details: one experiment; read-out: DENV FL NS5 de novo initiation FAPA, IC50, DENV2
# T3 construct: made in house
# Protocol: as §13, §1, §2, §3, §4, §5, §6, §7, §8, §9, §10, §11, §14, §12, §15, §16, §17, §18, §19
# 21 compound was tested at l east twice.
# 23 Compound testing in DENV1-4 infected cells by high content imaging. Approximatel y 7
# 24 × 10^3 A549 cells per well were s eeded into 384-well plates in Ham’s F-12K medium
# DENV4 FL NS5 [3] = target: T2, DENV4 FL NS5; format: biochemical
# T2 sequence (P09866 2488-3387): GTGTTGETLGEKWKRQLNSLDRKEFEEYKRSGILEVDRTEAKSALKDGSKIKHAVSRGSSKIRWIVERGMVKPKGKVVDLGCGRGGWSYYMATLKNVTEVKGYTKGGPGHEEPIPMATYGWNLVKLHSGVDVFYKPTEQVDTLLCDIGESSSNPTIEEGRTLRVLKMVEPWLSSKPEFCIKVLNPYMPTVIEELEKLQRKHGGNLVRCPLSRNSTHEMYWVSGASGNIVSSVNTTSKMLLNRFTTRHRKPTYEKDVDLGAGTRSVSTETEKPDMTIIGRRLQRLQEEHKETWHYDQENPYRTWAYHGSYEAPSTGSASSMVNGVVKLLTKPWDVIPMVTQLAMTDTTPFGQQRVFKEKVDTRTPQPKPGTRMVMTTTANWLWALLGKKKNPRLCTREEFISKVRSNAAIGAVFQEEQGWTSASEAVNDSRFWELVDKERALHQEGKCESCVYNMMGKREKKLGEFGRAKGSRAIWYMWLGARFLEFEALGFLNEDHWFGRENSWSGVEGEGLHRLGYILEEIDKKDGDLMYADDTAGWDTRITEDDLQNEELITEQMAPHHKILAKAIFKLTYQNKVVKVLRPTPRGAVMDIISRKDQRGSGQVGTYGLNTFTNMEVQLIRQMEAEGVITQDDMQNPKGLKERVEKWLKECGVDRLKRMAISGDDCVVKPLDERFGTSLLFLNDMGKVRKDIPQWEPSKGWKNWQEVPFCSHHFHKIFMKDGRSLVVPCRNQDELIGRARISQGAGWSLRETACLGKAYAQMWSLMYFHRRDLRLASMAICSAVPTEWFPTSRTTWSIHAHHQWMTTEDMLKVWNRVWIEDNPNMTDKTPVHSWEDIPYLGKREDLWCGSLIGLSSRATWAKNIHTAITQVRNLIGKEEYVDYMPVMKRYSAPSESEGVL
# T1 sequence (P17763 2494-3392): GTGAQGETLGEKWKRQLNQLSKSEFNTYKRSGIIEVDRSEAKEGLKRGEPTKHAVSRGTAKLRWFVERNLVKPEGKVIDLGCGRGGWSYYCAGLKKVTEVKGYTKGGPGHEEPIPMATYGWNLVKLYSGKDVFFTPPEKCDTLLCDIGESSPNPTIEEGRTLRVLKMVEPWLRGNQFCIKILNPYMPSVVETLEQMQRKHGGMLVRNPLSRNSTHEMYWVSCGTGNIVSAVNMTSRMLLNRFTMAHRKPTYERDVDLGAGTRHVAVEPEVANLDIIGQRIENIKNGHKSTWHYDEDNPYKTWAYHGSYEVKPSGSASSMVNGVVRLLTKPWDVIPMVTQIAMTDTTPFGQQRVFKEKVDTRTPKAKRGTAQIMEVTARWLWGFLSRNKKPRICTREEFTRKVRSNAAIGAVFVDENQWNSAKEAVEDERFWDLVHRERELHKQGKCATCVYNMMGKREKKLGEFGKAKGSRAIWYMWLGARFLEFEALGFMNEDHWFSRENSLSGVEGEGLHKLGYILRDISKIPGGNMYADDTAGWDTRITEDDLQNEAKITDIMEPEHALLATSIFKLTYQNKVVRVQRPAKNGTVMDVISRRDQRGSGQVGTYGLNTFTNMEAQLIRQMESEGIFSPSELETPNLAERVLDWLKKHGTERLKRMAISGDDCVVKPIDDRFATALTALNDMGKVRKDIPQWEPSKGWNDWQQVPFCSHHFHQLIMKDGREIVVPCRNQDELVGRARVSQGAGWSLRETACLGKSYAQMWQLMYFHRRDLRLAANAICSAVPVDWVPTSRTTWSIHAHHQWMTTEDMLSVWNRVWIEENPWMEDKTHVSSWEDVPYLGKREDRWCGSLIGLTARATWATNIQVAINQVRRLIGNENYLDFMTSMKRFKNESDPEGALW
smiles,measurement,setting,value
COc1cccc(S(=O)(=O)NC(=O)c2cc(-c3ccc(C#CCO)s3)c(OC)cc2OC)c1 [Compound 27],EC50,[1],~2000 nM
same,IC50,DENV1 FL NS5,68 nM
COc1cccc(S(=O)(=O)NC(=O)c2cc(-c3ccc(C#CCO)s3)c(OC)cc2C)c1 [Compound 26i],EC50,"DENV4, strain MY01-22713",20.4 µM
same,IC50,DENV4 FL NS5 [2],109 ± 61 nM
same,IC50,DENV2 FL NS5,86 nM
COc1cc(OC)c(-c2ccc(C#CCO)s2)cc1C(=O)NS(=O)(=O)c1cccc2cccnc12 [Compound 29],mode of inhibition with respect to viral RNA substrate,"DENV4 FL NS5 [3]; Lineweaver-Burk plots, 0–500 nM RNA",uncompetitive
same,mode of inhibition with respect to GTP,"DENV4 FL NS5 [3]; Lineweaver-Burk plots, 0–50 μM GTP",uncompetitive inhibition
same,mode of inhibition at high GTP concentrations,DENV4 FL NS5 [3]; high GTP concentrations,non-competitive mode of inhibition
